Laboratory results from patent US5468615A, “Binding assay employing a synthetic gene for D4 dopamine receptors” (The Upjohn Company, priority 1993, dated 1995).
Each block holds one compound with its values, some of them ahead of it.

What was measured:
synthetic D4 receptor [1] = target: T1, synthetic D4 receptor (Homo sapiens, UniProt P21917, DEL265-296); assay: (3H)spiperone radioligand binding, membranes of HEK293 cells expressing synthetic D4 receptor (line D4-24); parameters: expressed in transfected cells; host or cells: HEK293 cells (EBV-based vector pCEP4), line D4-24
T1 sequence (P21917 with tags, fused parts or gaps DEL271-302): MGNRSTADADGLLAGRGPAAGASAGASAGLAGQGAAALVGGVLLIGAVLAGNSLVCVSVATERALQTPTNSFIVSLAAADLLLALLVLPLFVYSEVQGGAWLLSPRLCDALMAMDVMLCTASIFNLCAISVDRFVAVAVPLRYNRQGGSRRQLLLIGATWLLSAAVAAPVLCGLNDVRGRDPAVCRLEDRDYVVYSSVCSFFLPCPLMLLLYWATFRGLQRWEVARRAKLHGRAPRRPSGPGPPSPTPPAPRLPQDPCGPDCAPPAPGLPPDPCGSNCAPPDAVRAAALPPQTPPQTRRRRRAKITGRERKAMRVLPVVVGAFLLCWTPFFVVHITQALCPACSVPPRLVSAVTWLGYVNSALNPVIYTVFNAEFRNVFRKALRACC
Experimental: Each point is the mean of duplicates with non-specific binding subtracted.
(§1) LacI synthetic D4 transfected cells were grown in the presence of 100 μM IPTG for 48 hours prior to harvest. Cells grown in 100 mm dishes were rinsed once with 5 mls of ice cold Ca^2+ /Mg^2+ free PBS and scraped into 5 mls of the same buffer. Cells were pelleted (500×g, 5 minutes), and resuspended in 25 mM Tris, 5 mM EDTA, 5 mM EGTA, pH 7.5 (TEE), and frozen in liquid nitrogen. After thawing, the cells were homogenized and centrifuged at 1,000×g to remove nuclei and unbroken cells. The supernatant was centrifuged at 20,000×g, the membrane pellet was washed once with TEE, resuspended in binding buffer, and frozen in liquid nitrogen. Membrane aliquots were stored at -70° C.
(§2) Incubations were for 1 hour at 30° C. Assays were stopped by filtration through Whatman GF/B filters followed by 2×10 ml washes with ice cold 50 mM Tris, pH 7.5. The filters were counted by liquid scintillation spectroscopy.

synthetic D4 receptor [2] = target: T1, synthetic D4 receptor; assay: (3H)spiperone radioligand binding, membranes of LacI (CHO) cells expressing synthetic D4 receptor (line D4-19); parameters: expressed in transfected cells; settings: Scatchard transformation of saturation binding; line D4-19, IPTG induced
Experimental: as §1, §2

schizophrenics = settings: unlike other antipsychotic drugs; Casey (1989); cited from earlier work
D4 receptors = settings: CHO cells expressing D4 receptors
Experimental: AMP accumulation was measured in intact D4-19 cells plated at a density of 15,000 cells/well in a 24 well plate 48 hours prior to the experiment. The cells were incubated in serum free medium 1 hour prior to the experiment. Fresh medium (0.5 ml) containing 100 μM forskolin, 100 μM IBMX and varying concentrations of drugs were added to each well and cAMP was allowed to accumulate for 15 minutes at 30° C. The reactions were terminated by the removal of the medium and the addition of 100 μl cold 7.5% (TCA) trichloroacetic acid. The samples were diluted by the addition of 1.0 ml 50 mM sodium acetate, pH 6.2 and aliquots were assayed by RIA using Biomedical Technologies Incorporated cAMP RIA kit.
cAMP accumulation was measured in forskolin stimulated cells as described in methods. Dopamine (10 μM) was added to 3 wells (DA). […] The bars are the averages of the three wells expressed as the percentage of the forskolin response.

SMILES: O=C(CCCN1CCC2(CC1)C(=O)NCN2c1ccccc1)c1ccc(F)cc1 [(^3 H)-spiperone]
receptor expression over passages (3H-spiperone binding) (synthetic D4 receptor [1]; D4-24 cells, 540 pM 3H-spiperone, up to at least 12 passages over 10 weeks (FIG. 5)): remains constant
Bmax (synthetic D4 receptor [1]; Scatchard analysis of saturation binding, line D4-24 (FIG. 4)): 736 fmol/mg protein
Bmax (synthetic D4 receptor [2]): 260 fmol/mg protein

SMILES: CN1CCN(C2=Nc3cc(Cl)ccc3Nc3ccccc32)CC1 [clozapine]
tardive dyskinesia (schizophrenics): does not cause tardive dyskinesia
antagonism of dopamine inhibition of cAMP accumulation (D4 receptors; 10 μM clozapine with 10 μM dopamine (FIG. 6)): Antagonism

inhibition of cAMP accumulation (D4 receptors; 10 μM dopamine, forskolin stimulated (FIG. 6)): Inhibition of cAMP accumulation
SMILES: NCCc1ccc(O)c(O)c1 [dopamine]
